Experimental data as given in patent US20070135431A1, “INHIBITORS OF HISTONE DEACETYLASE FOR THE TREATMENT OF DISEASE” (KALYPSYS, INC, priority 2005, published 2007).

How the values were obtained:
[1] = test system: HDAC; assay: In vitro HDAC-inhibition assay (Fluor de Lys fluorescent activity assay); assay type: biochemical; conditions: HDAC enzyme source (e.g. nuclear extract or immunopurified HDAC complexes), Fluor de Lys substrate, 30 minutes RT
Method: 1) In vitro HDAC-inhibition Assay:
This assay measures a compound's ability to inhibit acetyl-lysine deacetylation in vitro and was used as both a primary screening method as well as for IC50 determinations of confirmed inhibitors. The assay is performed in vitro using an HDAC enzyme source (e.g. partially purified nuclear extract or immunopurified HDAC complexes) and a proprietary fluorescent substrate/developer system (HDAC Quantizyme Fluor de Lys Fluorescent Activity Assay, BIOMOL). The assay is run in 1,536-well Greiner white-bottom plates using the following volumes and order of addition: • Step 1: Enzyme (2.5 μL) source added to plate (from refrigerated container) • Step 2: Compounds (50 nL) added with pin transfer device • Step 3: Fluor de Lys (2.5 μL) substrate added, incubate at RT, 30 minutes • Step 4: Developer (5 μL) solution is added (containing TSA), to stop reaction • Step 5: Plate Reader—data collection
The deacetylated fluorophore is excited with 360 nm light and the emitted light (460 nm) is detected on an automated fluorometric plate reader (Aquest, Molecular Devices).

[2] = test system: HDAC in cells; assay: Cellular HDAC inhibition (cellular histone hyperacetylation / cytotoxicity assays; Table 1 only says Cellular IC50); assay type: cell-based; conditions: transformed cell lines (e.g. HeLa, A549, MCF-7); cell line not given
Method: 2) Cellular Histone Hyperacetylation Assays:
These two secondary assays evaluate a compound's ability to inhibit HDAC in cells by measuring cellular histone acetylation levels. The cytoblot facilitates quantitative EC50 information for cellular HDAC inhibition. Transformed cell lines (e.g. HeLa, A549, MCF-7) are cultured under standard media and culture conditions prior to plating.
Cells (approx. 2,500/well) are allowed to adhere 10-24 hours to wells of a 384-well Greiner PS assay plate in media containing 1-5% serum. Cells are treated with appropriate compound and specific concentrations for 0 to 24 hours. Cells are washed once with PBS (60 μL) and then fixed (95% ethanol, 5% acetic acid or 2% PFA) for 1 minute at RT (30 μL). Cells are blocked with 1% BSA for 1 hour and washed and stained with antibody (e.g. anti-Acetylated Histone H3, Upstate Biotechnology), followed by washing and incubation with an appropriate secondary antibody conjugated to HRP or fluorophore. For luminescence assays, signal is generated using Luminol substrate (Santa Cruz Biotechnology) and detected using an Aquest plate reader (Molecular Devices).
3) Differential Cytotoxicity Assay:
HDAC inhibitors display differential cytotoxicity toward certain transformed cell lines. Cells are cultured according to standard ATCC recommended conditions that are appropriate to each cell type. Compounds were tested for their ability to kill different cell types (normal and transformed) using the ATPlite luminescence ATP detection assay system (Perkin Elmer). Assays are run in either 384-well or 1536-well Greiner PS plates. Cells (30 μL or 5 μL, respectively) are dispensed using either multichannel pipette for 384-well plates, or proprietary Kalypsys bulk liquid dispenser for 1536-well plates. Compounds added using proprietary pin-transfer device (500 nL or 5 nL) and incubated 5 to 30 hours prior to analysis. Luminescence is measured using Aquest plate reader (Molecular Devices).

SMILES | IC50 [1] | IC50 [2]
CC(=O)SCC(=O)c1ccc(NS(=O)(=O)c2ccc(OCCCN3CCCCC3)cc2)cc1 [Example 22, Thioacetic acid S-(2-oxo-2-{4-[4-(3-piperidin-1-yl-propoxy)-benzenesulfonylamino]-phenyl}-ethyl) ester] | ≤ 1000 nM | ≤ 1000 nM
CC(=O)SCC(=O)c1ccc(NS(=O)(=O)c2ccc(OCCCc3cccnc3)cc2)cc1 [Example 16, Thioacetic acid S-(2-oxo-2-{4-[4-(3-pyridin-3-yl-propoxy)-benzenesulfonylamino]-phenyl}-ethyl) ester] | ≤ 1000 nM | > 1000 nM
CC(=O)SCC(=O)c1ccc(NS(=O)(=O)c2ccc(OCCCN3CCCCC3)cc2)nc1 [Example 25, Thioacetic acid S-(2-oxo-2-{6-[4-(3-piperidin-1-yl-propoxy)-benzenesulfonylamino]-pyridin-3-yl}-ethyl) ester] | ≤ 1000 nM | ≤ 1000 nM
CC(=O)SCC(=O)c1ccc(NS(=O)(=O)c2ccc(Oc3ccccc3)cc2)cc1 [Example 03, Thioacetic acid S-{2-oxo-2-[4-(4-phenoxy-benzenesulfonylamino)-phenyl]-ethyl} ester] | ≤ 1000 nM | ≤ 1000 nM

Further lines, with some results ahead:

IC50 [1] | SMILES | IC50 [2]
≤ 1000 nM | CC(=O)SCC(=O)c1ccc(NS(=O)(=O)c2ccc(OCCCN3CCOCC3)cc2)cc1 [Example 12, Thioacetic acid S-(2-{4-[4-(3-morpholin-4-yl-propoxy)-benzenesulfonylamino]-phenyl}-2-oxo-ethyl) ester] | ≤ 1000 nM
≤ 1000 nM | CC(=O)SCC(=O)c1ccc(NS(=O)(=O)c2ccc(OC3CCN(C)CC3)cc2)nc1 [Example 29, Thioacetic acid S-(2-{6-[4-(1-methyl-piperidin-4-yloxy)-benzenesulfonylamino]-pyridin-3-yl}-2-oxo-ethyl) ester] | ≤ 1000 nM
